In PubChem BioAssay AID292 (DTP/NCI, 2004) one finds T/C data, which are given here for 9 compounds.

SMILES strings stand for the structures. “And” between values parts separate entries of the source, which are not always exact repeats. Equal entries are not always repeated. Inconclusive results and toxic doses are left out.

For the experiment, the system named is B6C3F1 mice, ip Sarcoma M5076, median survival T/C. As to the kind of experiment: NCI In Vivo Anticancer Drug Screen. Data for tumor model Sarcoma M5076 (intraperitoneal) in B6C3F1 mice. The conditions noted are these: endpoint: median survival time, higher = longer survival. As to the method:
The antitumor activity of compounds was measured in mice bearing transplantable tumors. Survival or tumor size were measured and the results are expressed as the measurement made in the treated group (T) divided by the measurement made in the vehicle treated control group (C). The tumor model used in this assay is Sarcoma M5076 (intraperitoneal) in B6C3F1 mice

Where [1] appears, read: dose: 25.0 mg/kg/injection, schedule: Q04DX004 (ip), vehicle: distilled water + Tween-80.
[2] abbreviates: dose: 100.0 mg/kg/injection, schedule: Q04DX004 (ip), vehicle: distilled water + Tween-80.
The mark [3] stands for this setting: dose: 125.0 mg/kg/injection, schedule: Q04DX004 (ip), vehicle: saline with Tween-80.

Consider `Nc1nc([Se]c2nc(N)nc3c2ncn3C2OC(CO)C(O)C2O)c2ncn(C3OC(CO)C(O)C3O)c2n1` (centres undefined), for which the T/C was 123 % of control under setting [1]; 159 % of control under setting [2]; 157 % of control and 177 % of control (dose: 200.0 mg/kg/injection, schedule: Q04DX004 (ip), vehicle: distilled water + Tween-80).

For the compound `CCN(CC)CCn1c2c(c3ccc(OC)cc31)CCN1CC3CC(OC(=O)c4cc(OC)c(OC)c(OC)c4)C(OC)C(C(=O)OC)C3CC21` (centres undefined), the T/C was 105 % of control (dose: 25.0 mg/kg/injection, schedule: Q04DX004 (ip), vehicle: saline); 97 % of control (dose: 50.0 mg/kg/injection, schedule: Q04DX004 (ip), vehicle: saline); 97 % of control (dose: 100.0 mg/kg/injection, schedule: Q04DX004 (ip), vehicle: saline); 86 % of control (dose: 200.0 mg/kg/injection, schedule: Q04DX004 (ip), vehicle: saline).

For `O=C(O)CC(Sc1ccc(Cl)cc1)C(=O)Nc1ccccc1` (centres undefined), the T/C is 99 % of control (dose: 31.25 mg/kg/injection, schedule: Q04DX004 (ip), vehicle: saline with Tween-80); 102 % of control (dose: 62.5 mg/kg/injection, schedule: Q04DX004 (ip), vehicle: saline with Tween-80); 90 % of control under setting [3]; 94 % of control (dose: 500.0 mg/kg/injection, schedule: Q04DX004 (ip), vehicle: saline with Tween-80).

For the compound `COc1ccc(-c2cc(C(=O)Nc3cc(C(F)(F)F)cc(C(F)(F)F)c3)c3ccccc3n2)cc1`, the T/C runs as follows: (dose: 50.0 mg/kg/injection, schedule: Q04DX004 (ip), vehicle: DMSO) 101 % of control; (dose: 100.0 mg/kg/injection, schedule: Q04DX004 (ip), vehicle: DMSO) 94 % of control; (dose: 200.0 mg/kg/injection, schedule: Q04DX004 (ip), vehicle: DMSO) 110 % of control; (dose: 400.0 mg/kg/injection, schedule: Q04DX004 (ip), vehicle: DMSO) 111 % of control.

On to `COc1cc2c(cc1OC)-c1c3c(cc4c1[C@@H](C2)N(C)CC4)OCO3`, for which the T/C was 101 % of control (dose: 12.5 mg/kg/injection, schedule: Q04DX004 (ip), vehicle: distilled water + Tween-80); 100 % of control under setting [1]; 100 % of control (dose: 50.0 mg/kg/injection, schedule: Q04DX004 (ip), vehicle: distilled water + Tween-80); 95 % of control under setting [2].

Turning to `CO[C@H](/C(C)=C/C=C/C(C)=C/c1coc(C)n1)[C@H](C)[C@H]1C[C@@H](O)[C@@]2(C)O[C@H]2/C=C/[C@@H](C)[C@@H]2C[C@@H](CC(=O)O2)C[C@H]2O[C@@H]2C(=O)O1`, the T/C is, setting by setting: (dose: 0.06 mg/kg/injection, schedule: Q04DX004 (ip), vehicle: other) 110 % of control; (dose: 0.09 mg/kg/injection, schedule: Q04DX004 (ip), vehicle: Klucel (hydroxypropylcellulose) (HPC)) 116 % of control; (dose: 0.09 mg/kg/injection, schedule: Q04DX004 (ip), vehicle: other) 108 % of control and 113 % of control; (dose: 0.12 mg/kg/injection, schedule: Q04DX004 (ip), vehicle: Klucel (hydroxypropylcellulose) (HPC)) 118 % of control; (dose: 0.13 mg/kg/injection, schedule: Q01DX005 (sc), vehicle: other) 109 % of control; (dose: 0.13 mg/kg/injection, schedule: Q04DX004 (ip), vehicle: Klucel (hydroxypropylcellulose) (HPC)) 115 % of control and 121 % of control. For the same compound, the T/C reads like this: (dose: 0.13 mg/kg/injection, schedule: Q04DX004 (ip), vehicle: other) 110 % of control; (dose: 0.13 mg/kg/injection, schedule: Q04DX004 (iv), vehicle: other) 112 % of control; (dose: 0.2 mg/kg/injection, schedule: Q01DX001 (sc), vehicle: other) 102 % of control; (dose: 0.2 mg/kg/injection, schedule: Q01DX005 (sc), vehicle: other) 114 % of control; (dose: 0.2 mg/kg/injection, schedule: Q01DX013 (ip), vehicle: other) 162 % of control; (dose: 0.2 mg/kg/injection, schedule: Q04DX004 (ip), vehicle: Klucel (hydroxypropylcellulose) (HPC)) 119 % of control. Moreover, the T/C by setting is: (dose: 0.2 mg/kg/injection, schedule: Q04DX004 (ip), vehicle: other) 115 % of control and 121 % of control and 122 % of control; (dose: 0.2 mg/kg/injection, schedule: Q04DX004 (iv), vehicle: other) 110 % of control; (dose: 0.25 mg/kg/injection, schedule: Q04DX004 (ip), vehicle: Klucel (hydroxypropylcellulose) (HPC)) 118 % of control; (dose: 0.3 mg/kg/injection, schedule: Q01DX001 (sc), vehicle: other) 105 % of control; (dose: 0.3 mg/kg/injection, schedule: Q01DX005 (sc), vehicle: other) 115 % of control; (dose: 0.3 mg/kg/injection, schedule: Q01DX013 (ip), vehicle: other) 163 % of control. The T/C by setting is: (dose: 0.3 mg/kg/injection, schedule: Q04DX004 (ip), vehicle: Klucel (hydroxypropylcellulose) (HPC)) 123 % of control; (dose: 0.3 mg/kg/injection, schedule: Q04DX004 (ip), vehicle: other) 123 % of control; (dose: 0.3 mg/kg/injection, schedule: Q04DX004 (iv), vehicle: other) 117 % of control; (dose: 0.44 mg/kg/injection, schedule: Q04DX004 (iv), vehicle: other) 122 % of control; (dose: 0.45 mg/kg/injection, schedule: Q01DX001 (sc), vehicle: other) 109 % of control; (dose: 0.67 mg/kg/injection, schedule: Q01DX001 (sc), vehicle: other) 99 % of control. The T/C (dose: 0.67 mg/kg/injection, schedule: Q04DX004 (ip), vehicle: Klucel (hydroxypropylcellulose) (HPC)) is 150 % of control; the T/C (dose: 1.0 mg/kg/injection, schedule: Q01DX001 (sc), vehicle: other) is 104 % of control; the T/C (dose: 1.0 mg/kg/injection, schedule: Q04DX004 (ip), vehicle: other) was 169 % of control; the T/C (dose: 1.5 mg/kg/injection, schedule: Q01DX001 (sc), vehicle: other) is 110 % of control; the T/C (dose: 1.5 mg/kg/injection, schedule: Q04DX004 (ip), vehicle: Klucel (hydroxypropylcellulose) (HPC)) is 161 % of control; the T/C (dose: 0.67 micrograms per hour, schedule: Q#X X024 (sc), vehicle: other) was 122 % of control. Besides, the T/C (dose: 0.67 micrograms per hour, schedule: Q#X X072 (sc), vehicle: other) is 152 % of control; the T/C (dose: 1.0 micrograms per hour, schedule: Q#X X072 (sc), vehicle: other) was 150 % of control; the T/C (dose: 55.6 micrograms/kg/injection, schedule: Q03HX008 (sc), vehicle: other) is 110 % of control; the T/C (dose: 83.4 micrograms/kg/injection, schedule: Q03HX008 (sc), vehicle: other) was 118 % of control; the T/C (dose: 125.0 micrograms/kg/injection, schedule: Q03HX008 (sc), vehicle: other) was 123 % of control; the T/C (dose: 281.0 micrograms/kg/injection, schedule: Q03HX008 (sc), vehicle: other) was 120 % of control.

With `COc1cc(C(CC(C)=O)c2cc3c(cc2OC(C)=O)OCO3)cc(OC)c1OC` (centres undefined) (tested in a mixture with another compound), the T/C is 100 % of control (dose: 27.0 mg/kg/injection, schedule: Q04DX004 (ip), vehicle: saline with Tween-80); 101 % of control and 103 % of control (dose: 45.0 mg/kg/injection, schedule: Q04DX004 (ip), vehicle: saline with Tween-80); 111 % of control and 119 % of control (dose: 75.0 mg/kg/injection, schedule: Q04DX004 (ip), vehicle: saline with Tween-80); 119 % of control under setting [3]; 124 % of control (dose: 208.3 mg/kg/injection, schedule: Q04DX004 (ip), vehicle: saline with Tween-80).

On to `O=C(Nc1cccnc1)c1ccc([N+](=O)[O-])s1`, for which the T/C by setting is: (dose: 3.0 mg/kg/injection, schedule: Q04DX004 (ip), vehicle: saline) 102 % of control; (dose: 6.0 mg/kg/injection, schedule: Q04DX004 (ip), vehicle: saline) 97 % of control; (dose: 12.0 mg/kg/injection, schedule: Q04DX004 (ip), vehicle: saline) 96 % of control; (dose: 24.0 mg/kg/injection, schedule: Q04DX004 (ip), vehicle: saline) 87 % of control; (dose: 48.0 mg/kg/injection, schedule: Q04DX004 (ip), vehicle: saline) 89 % of control.

In the case of `N=C1C=CC2C(=Nc3ccccc3[N+]2=O)N1CCO` (centres undefined), the T/C reads like this: (dose: 25.0 mg/kg/injection, schedule: Q04DX004 (ip), vehicle: saline with Tween-80) 91 % of control; (dose: 50.0 mg/kg/injection, schedule: Q04DX004 (ip), vehicle: saline with Tween-80) 103 % of control; (dose: 100.0 mg/kg/injection, schedule: Q04DX004 (ip), vehicle: saline with Tween-80) 104 % of control; (dose: 200.0 mg/kg/injection, schedule: Q04DX004 (ip), vehicle: saline with Tween-80) 100 % of control.
